{"source": "patent US9969771B2", "about": "“Tetrapeptide having effect of inhibiting VEGF-induced angiogenesis and use thereof” (AVIXGEN INC., priority 2015, dated 2018)", "key": {"VEGFR-1": {"biological_target": "T1, VEGFR-1 (Homo sapiens, UniProt P17948)", "T1 construct": "endogenous in cells; host or cells: HUVEC lysate", "T1 sequence (P17948 27-1338)": "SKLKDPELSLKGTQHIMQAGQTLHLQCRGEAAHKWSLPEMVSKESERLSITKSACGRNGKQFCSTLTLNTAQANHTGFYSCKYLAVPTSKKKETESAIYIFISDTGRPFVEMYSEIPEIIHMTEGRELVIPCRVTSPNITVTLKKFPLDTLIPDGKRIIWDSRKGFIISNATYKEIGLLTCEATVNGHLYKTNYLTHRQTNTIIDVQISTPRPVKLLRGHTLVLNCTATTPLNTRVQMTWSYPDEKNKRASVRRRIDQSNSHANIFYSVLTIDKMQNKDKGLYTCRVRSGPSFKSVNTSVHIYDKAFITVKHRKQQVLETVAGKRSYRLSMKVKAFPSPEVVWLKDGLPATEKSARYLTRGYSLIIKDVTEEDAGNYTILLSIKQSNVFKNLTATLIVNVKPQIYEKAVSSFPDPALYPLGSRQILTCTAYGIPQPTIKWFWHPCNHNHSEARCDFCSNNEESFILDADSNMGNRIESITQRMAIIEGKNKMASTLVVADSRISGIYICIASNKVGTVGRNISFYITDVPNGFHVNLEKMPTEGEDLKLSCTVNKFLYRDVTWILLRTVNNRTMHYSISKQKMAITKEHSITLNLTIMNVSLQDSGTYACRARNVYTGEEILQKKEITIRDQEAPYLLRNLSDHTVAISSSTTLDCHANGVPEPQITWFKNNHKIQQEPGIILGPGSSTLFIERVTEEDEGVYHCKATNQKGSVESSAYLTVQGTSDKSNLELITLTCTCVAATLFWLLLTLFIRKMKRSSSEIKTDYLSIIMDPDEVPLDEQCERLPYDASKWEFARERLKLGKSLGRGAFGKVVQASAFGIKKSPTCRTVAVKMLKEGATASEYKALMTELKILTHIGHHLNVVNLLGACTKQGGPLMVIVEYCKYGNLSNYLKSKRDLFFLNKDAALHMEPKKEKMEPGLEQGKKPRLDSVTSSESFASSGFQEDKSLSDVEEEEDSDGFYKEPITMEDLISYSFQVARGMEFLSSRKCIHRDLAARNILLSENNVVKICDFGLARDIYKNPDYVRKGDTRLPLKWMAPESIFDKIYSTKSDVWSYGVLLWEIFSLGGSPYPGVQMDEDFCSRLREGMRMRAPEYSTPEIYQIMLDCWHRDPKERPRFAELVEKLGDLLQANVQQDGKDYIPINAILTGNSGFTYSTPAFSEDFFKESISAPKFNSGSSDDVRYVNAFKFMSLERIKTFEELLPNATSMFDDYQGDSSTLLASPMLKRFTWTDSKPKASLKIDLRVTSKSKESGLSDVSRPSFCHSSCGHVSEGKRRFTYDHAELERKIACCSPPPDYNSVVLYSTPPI", "experiment": "VEGFR pull-down assay using biotin-labeled RLYE, VEGFR-1", "type": "binding", "settings": "HUVEC lysate", "description": "(§1) HUVECs were lysed in a pull-down buffer [50 mM Tris-HCl (pH 8.0), 150 mM sodium chloride, 1.0% NP-40, 0.5% sodium deoxycholate and 0.1% SDS]. A lysate ([…] of proteins) was reacted with biotin-labeled RLYE (SEQ ID NO: 2) (0.15 or 1.5 nM) for 1 hour, and reacted with streptavidin-agarose beads ([…]) at 4° C. for 1 hour. RLYE (SEQ ID NO: 2)-binding proteins were isolated from the cell lysate through centrifugation, washed, and then boiled for 10 minutes. The bead-binding proteins were isolated by SDS-PAGE, and immunoblotting was performed with an antibody with respect to VEGFR-2 or VEGFR-1."}, "Akt": {"system": "Akt", "experiment": "Western blot, Akt phosphorylation in VEGF-A-stimulated HUVECs", "type": "cell-based, human", "settings": "HUVECs stimulated with VEGF-A", "description": "(§2) Cells were lyzed in RIPA buffer, and 50 μg of proteins were isolated by SDS-PAGE and then transferred to a PVDF membrane. The membrane was reacted with an antibody with respect to a target protein for 2 hours. The membrane was washed twice and reacted with a horseradish peroxidase-conjugated antibody, and then an amount of the target proteins was assessed with an enhanced chemiluminescence system."}, "[1]": {"system": "B16F10 mouse melanoma cells", "experiment": "Tumor metastasis experiment model (B16F10)", "type": "in vivo, C57BL/6J mouse", "settings": "B16F10, 1 mg/kg per day peritoneally, three weeks, versus untreated control mouse", "description": "1×10^5 B16F10 mouse melanoma cells were injected into the caudal vein in the C57BL/6J mouse, and 1 mg/kg (100 μl) of RLYE (SEQ ID NO: 2) was peritoneally injected daily for 3 weeks. The lung was extracted and washed with Dulbecco's PBS, fixed in a 4% paraformaldehyde solution overnight, and the number of tumor metastasis shown on the entire surface of the lung was counted under a stereoscopic microscope."}, "[2]": {"system": "chick chorioallantoic membrane (CAM)", "experiment": "Chick chorioallantoic membrane (CAM) analysis", "type": "in vivo", "settings": "RLYE 0.75 nM, VEGF 50 ng/ml", "description": "For a chick chorioallantoic membrane (CAM) analysis, fertilized eggs were incubated for 3 days, and a window was made in the same manner as used in the previous research (18). The window (with a diameter of about 3 cm) was made by removing a shell and an inner layer of the shell, and the exposed part was sealed with cellophane tape. The eggs were stood upright at 37° C. in an incubator (with a humidity of 55 to 60%) and were incubated for 3 days. A Thermanox disc containing 10 μl of a salt-free solution containing RLYE (SEQ ID NO: 2) (0.75 nM) alone or in combination with VEGF (50 ng/ml) was gently placed on a CAM that had been incubated for 10 days. After 72-hour incubation, blood vessels formed above were stained by injecting 1 ml of a 10% intralipose (fat emulsion) solution right under the CAM. The stained blood vessels were photographed using a Nikon digital camera, and the number of blood vessels newly formed around the disc was counted."}, "VEGFR-2": {"biological_target": "VEGFR-2 (Homo sapiens, UniProt P35968)", "sequence (P35968 20-1356)": "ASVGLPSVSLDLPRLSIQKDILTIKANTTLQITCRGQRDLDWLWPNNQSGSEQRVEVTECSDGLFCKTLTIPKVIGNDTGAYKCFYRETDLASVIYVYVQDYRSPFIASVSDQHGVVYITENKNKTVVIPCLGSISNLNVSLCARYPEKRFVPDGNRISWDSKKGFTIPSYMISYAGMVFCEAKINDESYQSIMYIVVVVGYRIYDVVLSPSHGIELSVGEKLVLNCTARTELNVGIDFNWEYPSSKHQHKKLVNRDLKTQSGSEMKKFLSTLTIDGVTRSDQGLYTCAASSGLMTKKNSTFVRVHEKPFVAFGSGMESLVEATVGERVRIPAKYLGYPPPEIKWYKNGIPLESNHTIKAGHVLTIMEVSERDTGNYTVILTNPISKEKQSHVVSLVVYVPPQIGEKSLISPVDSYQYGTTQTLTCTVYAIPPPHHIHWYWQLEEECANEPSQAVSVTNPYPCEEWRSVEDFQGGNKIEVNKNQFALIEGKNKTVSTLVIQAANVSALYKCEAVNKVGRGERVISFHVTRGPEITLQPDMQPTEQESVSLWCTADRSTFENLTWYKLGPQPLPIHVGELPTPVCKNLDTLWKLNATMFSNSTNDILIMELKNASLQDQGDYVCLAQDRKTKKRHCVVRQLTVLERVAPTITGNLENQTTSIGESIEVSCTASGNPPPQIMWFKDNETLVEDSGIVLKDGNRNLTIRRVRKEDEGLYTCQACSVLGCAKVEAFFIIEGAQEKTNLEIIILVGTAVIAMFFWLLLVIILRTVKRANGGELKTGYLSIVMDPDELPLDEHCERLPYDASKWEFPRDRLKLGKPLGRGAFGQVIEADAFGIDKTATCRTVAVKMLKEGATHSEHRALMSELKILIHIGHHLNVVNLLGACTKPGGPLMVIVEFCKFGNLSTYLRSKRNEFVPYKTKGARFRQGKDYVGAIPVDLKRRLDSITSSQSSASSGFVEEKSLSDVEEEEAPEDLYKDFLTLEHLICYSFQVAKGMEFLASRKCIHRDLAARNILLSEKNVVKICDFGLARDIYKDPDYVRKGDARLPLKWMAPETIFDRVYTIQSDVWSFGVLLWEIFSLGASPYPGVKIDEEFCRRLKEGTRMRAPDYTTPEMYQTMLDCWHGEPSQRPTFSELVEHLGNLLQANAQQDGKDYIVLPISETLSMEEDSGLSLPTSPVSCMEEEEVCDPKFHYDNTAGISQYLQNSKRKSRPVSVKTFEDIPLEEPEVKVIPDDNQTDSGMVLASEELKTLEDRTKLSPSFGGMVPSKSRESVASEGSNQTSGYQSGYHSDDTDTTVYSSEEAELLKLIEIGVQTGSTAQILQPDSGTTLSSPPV", "experiment": "VEGFR pull-down assay using biotin-labeled RLYE, VEGFR-2", "type": "binding", "parameters": "endogenous in cells; host or cells: HUVEC", "settings": "HUVEC lysate", "description": "as §1"}, "HUVECs [3]": {"system": "HUVECs", "experiment": "HUVEC migration, transwell (Boyden chamber) assay", "type": "cell-based, human", "description": "HUVEC migration was analyzed using a transwell plate equipped with a 6.5-mm-diameter polycarbonate filter (8-μm pore size). A lower surface of the filter was coated with 10 μg of gelatin. […] Following incubation with various concentrations of tetrapeptides at room temperature for 30 minutes, HUVECs (1×10^6 cells/100 μl) were placed in upper wells. The cells were incubated at 37° C. in a constant temperature and humidity chamber for 4 hours. The migrated cells were stained with hematoxylin and eosin, and quantified under an optical microscope."}, "p38": {"system": "p38", "experiment": "Western blot, p38 activation in VEGF-A-stimulated HUVECs", "type": "cell-based, human", "settings": "HUVECs stimulated with VEGF-A", "description": "as §2"}, "NO synthase (eNOS)": {"system": "NO synthase (eNOS)", "experiment": "Western blot, eNOS phosphorylation in VEGF-A-stimulated HUVECs", "type": "cell-based, human", "description": "as §2"}, "[4]": {"system": "B16F1 mouse melanoma cells", "experiment": "Mouse melanoma (B16F1) animal model", "type": "in vivo, C57BL/6J mouse", "settings": "1 mg/kg per day peritoneally", "description": "100 μl each of 2×10^6 B16F1 mouse melanoma cells and 1×10^7 HCT116 human colorectal tumor cells were subcutaneously injected into the left side of a C57BL/6J mouse and a nude mouse. After a tumor volume reached at least 50 to 70 mm3 (taking about 7 days), saline or RLYE (SEQ ID NO: 2) (0.5 or 1.0 mg/kg) was peritoneally injected daily into the mice. A tumor size was two-dimensionally measured with calipers. A tumor volume (mm3) was calculated by a formula of […]. Following homogenization of tumor tissue with PBS and centrifugation (at 12,000×g for 5 min), a hemoglobin-containing supernatant was extracted to be used in analysis with Drabkin's reagent (Sigma). A hemoglobin level was measured by a cyanmethemoglobin method, and the amount of hemoglobin per gram of the tumor was calculated."}, "FAK": {"system": "FAK", "experiment": "Western blot, FAK phosphorylation in VEGF-A-stimulated HUVECs", "type": "cell-based, human", "settings": "HUVECs stimulated with VEGF-A", "description": "as §2"}, "HUVECs [5]": {"system": "HUVECs", "experiment": "VEGF-induced HUVEC proliferation, [3H]-thymidine incorporation assay", "type": "cell-based, human", "description": "Human umbilical vein endothelial cells (HUVECs) were cultured in M199 medium, and during experiments, the cells were always used at passages 2 to 7. Meanwhile, mouse melanoma cells (B16F1 and B16F10) and human colorectal tumor cells (HCT116) were cultured in RPMI media supplemented with 10% FBS, 1 mM sodium pyruvate, 10 mM 4-(2-hydroxyethyl)-1-piperazineethanesulfonic acid and 100 U/ml penicillin-streptomycin, and human multiple myeloma cells (IM-9 and RPMI 8226) were cultured in RPMI-1640 media. All of the cells were cultured at 37° C. with 5% CO2 in a humidified incubator.\nAngiogenic activity was determined by measuring cell proliferation, migration and tube formation. HUVEC proliferation was analyzed by a [3H]-thymidine incorporation assay. The HUVECs were seeded in a 24-well plate coated with gelatin at a density of 2×10^4 cells/well. […] […] […] 3H-labeled polymer DNA was evaluated with a liquid scintillation counter."}, "NO production in HUVECs": {"system": "NO production in HUVECs", "experiment": "NO production in HUVECs (DAF-FM diacetate)", "type": "cell-based, human", "settings": "peptide 0.15 nM, VEGF 10 ng/ml", "description": "An NO amount produced in HUVECs was evaluated with DAF-FM diacetate. HUVECs were reacted with peptides (0.15 nM) and VEGF (10 ng/ml) for 4 hours, and incubated with DAF-FM diacetate (5 μM) in a CO2 constant temperature incubator, and the amount of NO produced in the cells was measured under a confocal microscope."}}, "note": "Entries after “also recorded” stand apart in the source; their conditions may differ. Where a SMILES comes first, the peptide text is derived from it.", "data": [{"smiles": "CC(C)C[C@H](NC(=O)[C@@H](N)CCCNC(=N)N)C(=O)N[C@@H](Cc1ccc(O)cc1)C(=O)N[C@@H](CCC(=O)O)C(=O)O", "note": "[RLYE] (H-RLYE-OH; N-terminus and C-terminus assumed)", "values": [{"measurement": "binding to VEGFR-1 (pull-down)", "setting": "VEGFR-1", "value": "does not bind to VEGFR-1"}, {"measurement": "phosphorylation of Akt", "setting": "Akt", "value": "inhibited"}, {"measurement": "decrease in number of colonies of tumor cells spreading to the lung", "setting": "[1]", "value": 62, "unit": "%"}, {"measurement": "VEGF-A-induced blood vessel density in CAM", "setting": "[2]", "value": "considerable reduction"}, {"measurement": "binding to VEGFR-2 (pull-down)", "setting": "VEGFR-2", "value": "binds to VEGFR-2"}, {"measurement": "EGF-induced migration of HUVECs", "setting": "HUVECs [3]; EGF stimulated", "value": "does not affect"}, {"measurement": "P1GF-induced HUVEC migration", "setting": "HUVECs [3]; P1GF (ligand of VEGFR-1)", "value": "does not inhibit"}, {"measurement": "inhibition of VEGF-induced HUVEC migration", "setting": "HUVECs [3]; VEGF / VEGF-A stimulated", "value": "effectively inhibited; also recorded: certainly inhibits; also recorded: concentration-dependently inhibited"}, {"measurement": "VEGF-B-induced HUVEC migration", "setting": "HUVECs [3]; VEGF-B (ligand of VEGFR-1)", "value": "does not inhibit"}, {"measurement": "bFGF-induced migration of HUVECs", "setting": "HUVECs [3]; bFGF stimulated", "value": "did not inhibit"}, {"measurement": "activation of p38", "setting": "p38", "value": "inhibited"}, {"measurement": "VEGF-A-induced phosphorylation of eNOS", "setting": "NO synthase (eNOS)", "value": "effectively blocked"}, {"measurement": "tumor growth", "setting": "[4]", "value": "significantly decreased"}, {"measurement": "tumor size", "setting": "[4]", "value": "significantly decreased"}, {"measurement": "tumor weight", "setting": "[4]", "value": "significantly decreased"}, {"measurement": "phosphorylation of FAK", "setting": "FAK", "value": "inhibited"}, {"measurement": "inhibition of VEGF-induced HUVEC proliferation", "setting": "HUVECs [5]; VEGF 10 ng/ml, [3H]-thymidine incorporation", "value": "effectively inhibited"}, {"measurement": "IC50 lower than that of the control KLYD (HUVEC proliferation)", "setting": "HUVECs [5]; versus KLYD", "value": 10, "unit": "fold"}, {"measurement": "inhibition of VEGF-induced NO production", "setting": "NO production in HUVECs", "value": "effectively blocked; also recorded: effectively inhibited; also recorded: higher inhibitory effect than the control KLYD"}]}]}
